We go through six compounds from ChEMBL document CHEMBL5465560, “Selectivity Literature for EUbOPEN Chemogenomic Library” (2024).

Some results are limits rather than exact numbers.

For assay [1], the target named is SRSF protein kinase 3 (Homo sapiens) (UniProt Q9UPE1). The assay can be described thus: Selectivity interaction (KinomeScan (DiscoverX)) EUB0000655a SRPK3. The conditions noted are these: at 10 µM.
Assay [2] concerns the target T1, Serine/threonine-protein kinase 3 (Homo sapiens) (UniProt Q13188).
T1 sequence (whole entry): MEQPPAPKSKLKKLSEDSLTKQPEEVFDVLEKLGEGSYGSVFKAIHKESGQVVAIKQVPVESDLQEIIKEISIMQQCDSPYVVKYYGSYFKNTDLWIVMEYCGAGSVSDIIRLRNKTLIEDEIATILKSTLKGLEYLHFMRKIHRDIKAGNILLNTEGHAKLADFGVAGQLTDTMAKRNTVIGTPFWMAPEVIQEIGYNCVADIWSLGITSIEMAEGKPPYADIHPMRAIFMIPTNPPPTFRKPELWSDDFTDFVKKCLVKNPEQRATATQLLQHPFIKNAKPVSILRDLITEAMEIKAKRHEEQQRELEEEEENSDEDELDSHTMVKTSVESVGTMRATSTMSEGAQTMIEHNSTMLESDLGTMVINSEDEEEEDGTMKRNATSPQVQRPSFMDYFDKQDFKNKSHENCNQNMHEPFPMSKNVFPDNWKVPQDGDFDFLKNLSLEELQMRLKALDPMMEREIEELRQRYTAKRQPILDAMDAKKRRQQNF
The assay can be described thus: Selectivity interaction (KinomeScan (DiscoverX)) EUB0000666a STK3. The conditions noted are these: at 10 µM.

The next assay concerns the target Cannabinoid receptor 1 (Homo sapiens, UniProt P21554). The assay can be described thus: Selectivity interaction (Cannabinoid CB1 calcium flux assay, agonist and antagonist mode ) EUB0000877a CNR1.
The target in assay [3] is Dual specificity mitogen-activated protein kinase kinase 1 (Homo sapiens, UniProt Q02750). Description: Selectivity interaction (ActivX KiNativ screen (ex vivo kinase selectivity in human PBMCs)) EUB0001619a MAP2K1. The following applies: PBMC, at 1 µM. Format: cell-based.
Assay [4] has as its target T2, Serine/threonine-protein kinase LATS1 (Homo sapiens) (UniProt O95835).
T2 sequence (whole entry): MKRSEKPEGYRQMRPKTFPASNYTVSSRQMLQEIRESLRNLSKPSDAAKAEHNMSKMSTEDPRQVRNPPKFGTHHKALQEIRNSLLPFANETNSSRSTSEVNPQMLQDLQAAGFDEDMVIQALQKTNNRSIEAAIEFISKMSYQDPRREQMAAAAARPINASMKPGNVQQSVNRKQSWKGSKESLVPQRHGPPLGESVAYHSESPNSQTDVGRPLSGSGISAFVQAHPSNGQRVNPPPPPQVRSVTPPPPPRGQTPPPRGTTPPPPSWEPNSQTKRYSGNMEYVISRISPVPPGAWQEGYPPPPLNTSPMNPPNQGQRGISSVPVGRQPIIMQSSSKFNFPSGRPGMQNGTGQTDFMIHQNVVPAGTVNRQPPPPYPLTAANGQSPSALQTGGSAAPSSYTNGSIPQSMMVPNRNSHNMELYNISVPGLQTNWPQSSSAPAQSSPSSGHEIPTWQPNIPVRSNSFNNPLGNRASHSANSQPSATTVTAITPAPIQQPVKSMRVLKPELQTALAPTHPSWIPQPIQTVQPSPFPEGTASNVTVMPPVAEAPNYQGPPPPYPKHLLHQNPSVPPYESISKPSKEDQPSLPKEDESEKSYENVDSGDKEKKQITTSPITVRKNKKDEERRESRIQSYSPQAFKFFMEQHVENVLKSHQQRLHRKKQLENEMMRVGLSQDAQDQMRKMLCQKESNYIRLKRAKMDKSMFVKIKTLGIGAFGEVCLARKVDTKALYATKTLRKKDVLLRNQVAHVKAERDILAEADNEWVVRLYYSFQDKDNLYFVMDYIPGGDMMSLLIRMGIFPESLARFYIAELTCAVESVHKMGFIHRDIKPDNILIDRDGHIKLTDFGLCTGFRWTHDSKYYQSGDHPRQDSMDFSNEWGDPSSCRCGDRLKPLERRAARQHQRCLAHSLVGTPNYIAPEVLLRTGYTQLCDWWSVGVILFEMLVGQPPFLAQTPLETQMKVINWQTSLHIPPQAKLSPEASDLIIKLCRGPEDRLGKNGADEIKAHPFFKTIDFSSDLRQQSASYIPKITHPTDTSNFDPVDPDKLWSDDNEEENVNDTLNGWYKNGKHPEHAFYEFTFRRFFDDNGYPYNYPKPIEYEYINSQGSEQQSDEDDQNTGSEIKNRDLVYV
Description: Selectivity interaction (Kinase panel (KiNativ target engagement assay in Jurkat cells)) EUB0001635a LATS1. Format: cell-based. The conditions noted are these: at 1 µM.

Assay [5] concerns the target T3, 3-phosphoinositide-dependent protein kinase 1 (Homo sapiens) (UniProt O15530).
T3 sequence (whole entry): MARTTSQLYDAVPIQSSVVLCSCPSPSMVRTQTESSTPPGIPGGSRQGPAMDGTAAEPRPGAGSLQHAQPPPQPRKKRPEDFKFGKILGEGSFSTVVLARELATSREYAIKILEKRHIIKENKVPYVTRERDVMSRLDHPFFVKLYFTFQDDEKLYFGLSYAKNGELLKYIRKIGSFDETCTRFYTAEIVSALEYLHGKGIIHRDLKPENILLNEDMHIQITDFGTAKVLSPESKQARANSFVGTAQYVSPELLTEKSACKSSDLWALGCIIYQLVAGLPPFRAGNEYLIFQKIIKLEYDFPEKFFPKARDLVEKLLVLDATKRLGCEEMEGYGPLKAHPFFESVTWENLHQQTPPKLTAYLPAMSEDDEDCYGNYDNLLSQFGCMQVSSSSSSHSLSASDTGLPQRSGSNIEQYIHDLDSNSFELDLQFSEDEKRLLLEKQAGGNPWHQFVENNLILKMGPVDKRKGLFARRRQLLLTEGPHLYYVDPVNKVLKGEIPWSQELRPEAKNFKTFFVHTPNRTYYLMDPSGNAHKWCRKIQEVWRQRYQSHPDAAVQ
The assay can be described thus: Selectivity interaction (KinomeScan (DiscoverX)) EUB0000618a PDPK1. The conditions noted are these: at 10 µM.

Sequence of Dual specificity mitogen-activated protein kinase kinase 1 (Q02750 whole entry): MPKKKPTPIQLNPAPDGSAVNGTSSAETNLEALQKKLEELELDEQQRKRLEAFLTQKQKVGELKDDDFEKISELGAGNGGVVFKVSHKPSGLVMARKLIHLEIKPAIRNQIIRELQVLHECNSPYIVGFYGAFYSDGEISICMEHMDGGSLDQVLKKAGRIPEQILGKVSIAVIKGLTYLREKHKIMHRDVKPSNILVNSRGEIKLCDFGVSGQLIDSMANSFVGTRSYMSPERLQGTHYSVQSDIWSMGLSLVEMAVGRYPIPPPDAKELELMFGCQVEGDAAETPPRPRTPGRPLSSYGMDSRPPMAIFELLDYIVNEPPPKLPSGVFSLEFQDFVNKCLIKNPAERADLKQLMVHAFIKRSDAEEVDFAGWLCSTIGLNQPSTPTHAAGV
Sequence of Cannabinoid receptor 1 (P21554 whole entry): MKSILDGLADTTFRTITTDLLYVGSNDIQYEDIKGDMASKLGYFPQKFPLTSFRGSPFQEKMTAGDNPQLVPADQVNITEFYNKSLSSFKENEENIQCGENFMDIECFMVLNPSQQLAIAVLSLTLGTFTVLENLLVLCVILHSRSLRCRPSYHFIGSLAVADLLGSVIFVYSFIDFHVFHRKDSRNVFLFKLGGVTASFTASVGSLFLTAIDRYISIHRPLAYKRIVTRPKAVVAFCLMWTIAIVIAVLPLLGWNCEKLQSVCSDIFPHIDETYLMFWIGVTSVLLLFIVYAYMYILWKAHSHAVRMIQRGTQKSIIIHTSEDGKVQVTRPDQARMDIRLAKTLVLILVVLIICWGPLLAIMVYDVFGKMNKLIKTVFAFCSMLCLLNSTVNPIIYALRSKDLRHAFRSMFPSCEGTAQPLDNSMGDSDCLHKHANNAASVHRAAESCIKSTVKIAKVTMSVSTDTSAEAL
Sequence of SRSF protein kinase 3 (Homo sapiens) (Q9UPE1 whole entry): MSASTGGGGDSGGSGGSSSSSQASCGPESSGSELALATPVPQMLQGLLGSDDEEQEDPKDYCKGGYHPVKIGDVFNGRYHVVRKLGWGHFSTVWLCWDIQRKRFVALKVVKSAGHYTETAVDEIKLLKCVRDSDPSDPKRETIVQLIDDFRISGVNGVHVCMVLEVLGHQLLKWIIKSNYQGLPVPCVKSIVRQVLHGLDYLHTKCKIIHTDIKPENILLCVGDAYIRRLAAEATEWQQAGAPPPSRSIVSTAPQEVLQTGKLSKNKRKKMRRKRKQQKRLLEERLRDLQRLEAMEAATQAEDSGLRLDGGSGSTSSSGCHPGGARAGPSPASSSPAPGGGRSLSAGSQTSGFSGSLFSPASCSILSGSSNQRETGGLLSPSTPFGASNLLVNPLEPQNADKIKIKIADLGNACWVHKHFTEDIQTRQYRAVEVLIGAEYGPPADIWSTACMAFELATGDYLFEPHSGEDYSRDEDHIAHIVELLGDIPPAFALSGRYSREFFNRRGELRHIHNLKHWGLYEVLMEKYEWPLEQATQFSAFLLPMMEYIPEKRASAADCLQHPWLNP

`CN(C)CCOc1ccc(-c2nc(-c3ccncc3)c(-c3ccc4c(c3)CC/C4=N\O)[nH]2)cc1` had a % of control in assay [1] of 100%.

Regarding `O=C(NOC[C@H](O)CO)c1ccc(F)c(F)c1Nc1ccc(I)cc1F`, the % of control in assay [2] came to 90%.

Turning to `CCC(=O)N1CC[C@H](Nc2ncnc3c2CN(c2cnc(OC)c(C(F)(F)F)c2)CC3)C1` [LENIOLISIB], the IC50 at Cannabinoid receptor 1 is more than 30 µM.

`N#Cc1cccc(-c2c[nH]c3ncnc(N4CCOCC4)c23)c1` yielded a % of inhibition in assay [3] of 6%.

Turning to `C=CC(=O)Nc1ccc(C(=O)Nc2[nH]nc3c2CN(C(=O)N[C@H](CN(C)C)c2ccccc2)C3(C)C)cc1`, in assay [4], the % of engagement was 7.2%.

For the compound `O[C@H]1CC[C@H](Nc2ncc3nc(Nc4c(F)cc(F)cc4F)n([C@H]4CCOC4)c3n2)CC1`, the % of control in assay [5] came to 100%.
